For test [1], the system named is thymocyte proliferation (cells from the thymus of normal BALB/c mice). In words: comitogen-induced thymocyte proliferation procedure (LAF). The note with it: read-out: LAF IC50. The format is cell-based. As for the experimental part:
Immunosuppressive activity was evaluated in an in vitro standard pharmacological test procedure to measure lymphocyte proliferation (LAF) and in an in vivo procedure in which the survival time of a pinch skin graft was evaluated.
The comitogen-induced thymocyte proliferation procedure (LAF) was used as an in vitro measure of the immunosuppressive effects of representative compounds. Briefly, cells from the thymus of normal BALB/c mice are cultured for 72 hours with PHA and IL-1 and pulsed with tritiated thymidine during the last six hours. […] Cells are harvested and incorporated; radioactivity is determined. Inhibition of lymphoproliferation is assessed in percent change in counts per minute from non-drug treated controls. […] [formula]

The test system of test [2] is pinch skin grafts from male DBA/2 donors transplanted to male BALB/c recipients. The experiment in a line: survival time of pinch skin grafts (in vivo). The note with it: intraperitoneal; DBA/2 donors to BALB/c recipients. More on the design: species or system BALB/c mice. As for the experimental part: The recipients are treated with either varying concentrations of cyclosporin A as test control or the test compound, intraperitoneally. Untreated recipients serve as rejection control. The graft is monitored daily and observations are recorded until the graft becomes dry and forms a blackened scab. This is considered as the rejection day.

In test [3] the test system is Candida albicans ATCC 10231. In words: Anti-Candida activity, plate test procedure, strain ATCC 10231. The note with it: ATCC10231, read-out: Anti-Candida Activity, Minimal Inhibitory Concentration (MIC). The format is cell-based. As for the experimental part:
(§1) Antifungal activity of the compounds of this invention was measured against 5 strains of Candida albicans using a plate test procedure for measurement of inhibition. The following represents the typical procedure used. Compound to be tested was placed on sterile dried 1/4" plate disks, and allowed to dry. Agar plates were seeded with fungi and allowed to solidify. The impregnated disks were placed on the seeded Agar surface and incubated for the time required for the particular culture. Results are expressed in MIC (μg/ml) to inhibit growth.

Test [4] relates to Candida albicans ATCC 38246. In words: Anti-Candida activity, plate test procedure, strain ATCC 38246. The class given is cell-based. The note with it: ATCC38246, read-out: Anti-Candida Activity, Minimal Inhibitory Concentration (MIC). As for the experimental part: as §1
Test [5] relates to Candida albicans ATCC 38247. In words: Anti-Candida activity, plate test procedure, strain ATCC 38247. The class given is cell-based. The note with it: ATCC38247, read-out: Anti-Candida Activity, Minimal Inhibitory Concentration (MIC). As for the experimental part: as §1
Test [6] relates to Candida albicans ATCC 38248. The experiment in a line: Anti-Candida activity, plate test procedure, strain ATCC 38248. The format is cell-based. The note with it: ATCC38248, read-out: Anti-Candida Activity, Minimal Inhibitory Concentration (MIC). As for the experimental part:
as §1

The next test deals with Candida albicans 3669. In words: Anti-Candida activity, plate test procedure, strain 3669. The note with it: read-out: Anti-Candida Activity, Minimal Inhibitory Concentration (MIC). The class given is cell-based. As for the experimental part:
as §1

Another test has as its system Candida albicans. The note with it: especially against Candida albicans; cited from earlier work.
A further test has as its system immune response. The note with it: cited from earlier work.
[7] abbreviates: Mus musculus, Thymocyte, thymocytes cultured 72 hours with PHA and IL-1, tritiated thymidine last six hours.

The term IC50 denotes the midpoint of a concentration-inhibition curve.

In brackets after ≈: the same amount, converted by molar mass. Read-outs that look alike come from different tables or passages of the source.

As to “31-[O-[2-(trimethylsilyl)ethoxylmethyl]rapamycin [Example 3]”, in test [1] (thymocytes cultured 72 hours with PHA and IL-1, tritiated thymidine last six hours), the IC50 is 17.2 nM.

On to `CO[C@H]1C[C@@H]2CC[C@@H](C)[C@@](O)(O2)C(=O)C(=O)N2CCCC[C@H]2C(=O)O[C@H]([C@H](C)C[C@@H]2CC[C@@H](O)[C@H](OC)C2)CC(=O)[C@H](C)/C=C(\C)[C@@H](OC(C)(C)OC)[C@@H](OC)C(=O)[C@H](C)C[C@H](C)/C=C/C=C/C=C/1C` [Example 1, 31-[O-(1-Methoxy-1-methyl)ethyl]rapamycin], for which the IC50 in [1] (setting [7]) worked out at 3.2 nM. Besides, in test [2], the “Skin Graft, mean survival days” value is listed as 10.7 days. The MIC is 0.025 µg/mL (≈ 0.0253 µM) in test [3]; 0.4 µg/mL (≈ 0.406 µM) in test [4]; 0.025 µg/mL (≈ 0.0253 µM) in test [5]; 0.1 µg/mL (≈ 0.101 µM) in test [6]; 0.4 µg/mL (≈ 0.406 µM) in the test on Candida albicans 3669.

Take `CO[C@H]1C[C@@H]2CC[C@@H](C)[C@@](O)(O2)C(=O)C(=O)N2CCCC[C@H]2C(=O)O[C@H]([C@H](C)C[C@@H]2CC[C@@H](OC(C)(C)OC)[C@H](OC)C2)CC(=O)[C@H](C)/C=C(\C)[C@@H](O)[C@@H](OC)C(=O)[C@H](C)C[C@H](C)/C=C/C=C/C=C/1C` [Example 2, 42-[O-(1-methoxy-1-methyl)ethyl]rapamycin]: the half-maximal inhibitory concentration (IC50) in [1] (setting [7]) was found to be 8.3 nM. The MIC in test [3] is 0.025 µg/mL (≈ 0.0253 µM); in test [4] it was 0.4 µg/mL (≈ 0.406 µM); in test [5], 0.025 µg/mL (≈ 0.0253 µM); in test [6], 0.1 µg/mL (≈ 0.101 µM); in the test with Candida albicans 3669, 0.2 µg/mL (≈ 0.203 µM).

Take `CO[C@H]1C[C@@H]2CC[C@@H](C)[C@@](O)(O2)C(=O)C(=O)N2CCCC[C@H]2C(=O)O[C@H]([C@H](C)C[C@@H]2CC[C@@H](O)[C@H](OC)C2)CC(=O)[C@H](C)/C=C(\C)[C@@H](O)[C@@H](OC)C(=O)[C@H](C)C[C@H](C)/C=C/C=C/C=C/1C` [Rapamycin, reference compound]: the concentration for half-maximal inhibition (IC50) in test [1] (Mus musculus, Thymocyte) lay within 3.3 to 5.8 nM. The MIC in test [3] amounted to 0.03 µg/mL (≈ 0.0328 µM); in test [4], 0.25 µg/mL (≈ 0.273 µM); in test [5], 0.03 µg/mL (≈ 0.0328 µM); in [6], 0.006 µg/mL (≈ 0.00656 µM); with Candida albicans 3669, 0.25 µg/mL (≈ 0.273 µM). In the test with Candida albicans, the “antifungal activity (in words)” value is on record as “profound antifungal activity”. Besides, the “inhibition of the immune response (in words)” value in the test on immune response is “inhibit the immune response”.

Source of the values: US5151413A (American Home Products Corporation, priority 1991, dated 1992).
